Results: the supplement of paper PMC6045584
± gives the standard deviation of the averaged measurements.

What was measured:
SOTRASTAURIN/AEB071 = compound: CN1CCN(c2nc(C3=C(c4c[nH]c5ccccc45)C(=O)NC3=O)c3ccccc3n2)CC1 [SOTRASTAURIN/AEB071]; assay: surviving fraction relative to DMSO-only wells; higher = less growth inhibition; settings: exposure time: 5 days
Outline: (§1)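 Log-phase tumour cell lines, 250–500 cells per well in 384-well plates, received inhibitors at 0.5, 1, 5, 10, 50, 100, 500 and 1000 nM continuously for five days, starting 24 hours after seeding. Viability was quantified with CellTiter-Glo luminescence and normalised to the median of DMSO-only wells to give surviving fraction. Three screens were run per line, and a line stayed in only with replicate Pearson r >0.7 and median Z' >0.3.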

XAV-939 = compound: Oc1nc(-c2ccc(C(F)(F)F)cc2)nc2c1CSCC2 [XAV-939]; assay: as above; settings: exposure time: 5 days
Outline: as §1

Row | Test System | surviving fraction (SOTRASTAURIN/AEB071; 0.5 nM) | surviving fraction (SOTRASTAURIN/AEB071; 1 nM) | surviving fraction (SOTRASTAURIN/AEB071; 5 nM) | surviving fraction (SOTRASTAURIN/AEB071; 10 nM) | surviving fraction (SOTRASTAURIN/AEB071; 50 nM) | surviving fraction (SOTRASTAURIN/AEB071; 100 nM) | surviving fraction (SOTRASTAURIN/AEB071; 500 nM) | surviving fraction (SOTRASTAURIN/AEB071; 1000 nM) | surviving fraction (XAV-939; 0.5 nM) | surviving fraction (XAV-939; 1 nM) | surviving fraction (XAV-939; 5 nM) | surviving fraction (XAV-939; 10 nM) | surviving fraction (XAV-939; 50 nM) | surviving fraction (XAV-939; 100 nM) | surviving fraction (XAV-939; 500 nM) | surviving fraction (XAV-939; 1000 nM)
1 | PCI30 HEADNECK | 0.958 ± 0.054 | 0.951 ± 0.062 | 1.07 ± 0.044 | 0.991 ± 0.083 | 1.05 ± 0.067 | 1.02 ± 0.072 | 1.07 ± 0.093 | 1.18 ± 0.1 | 1.01 ± 0.029 | 0.975 ± 0.064 | 1.07 ± 0.04 | 1.057 ± 0.0035 | 1.06 ± 0.036 | 1.15 ± 0.065 | 0.945 ± 0.13 | 0.8693 ± 0.008
2 | SYO1 SYNOVIAL | 1.02 ± 0.053 | 1.01 ± 0.058 | 1.04 ± 0.063 | 0.991 ± 0.068 | 0.869 ± 0.031 | 0.875 ± 0.021 | 0.891 ± 0.038 | 0.909 ± 0.038 | 0.954 ± 0.039 | 0.998 ± 0.062 | 0.984 ± 0.028 | 0.997 ± 0.047 | 0.973 ± 0.059 | 0.879 ± 0.024 | 0.708 ± 0.044 | 0.568 ± 0.0066
3 | A549 LUNG | 1.059 ± 0.0099 | 1.11 ± 0.015 | 1.076 ± 0.0085 | 1.06 ± 0.017 | 1.07 ± 0.021 | 1.102 ± 0.0085 | 1.07 ± 0.03 | 1.06 ± 0.048 | 0.967 ± 0.022 | 0.985 ± 0.053 | 1.01 ± 0.035 | 1.02 ± 0.087 | 1.07 ± 0.022 | 1.12 ± 0.013 | 1.084 ± 0.0087 | 1.14 ± 0.022
4 | HELA CERVIX | 1.03 ± 0.029 | 1.05 ± 0.052 | 1.05 ± 0.072 | 0.974 ± 0.043 | 1.14 ± 0.15 | 1.15 ± 0.063 | 1.11 ± 0.057 | 1.12 ± 0.092 | 1.02 ± 0.066 | 1.07 ± 0.033 | 1.06 ± 0.025 | 1.08 ± 0.036 | 1.09 ± 0.059 | 1.16 ± 0.028 | 1.09 ± 0.053 | 1.1 ± 0.049
5 | SJSA1 BONE | 1.72 ± 0.087 | 1.64 ± 0.046 | 1.64 ± 0.092 | 1.56 ± 0.13 | 0.992 ± 0.068 | 1.13 ± 0.029 | 1.7 ± 0.041 | 0.205 ± 0.018 | 1.1 ± 0.061 | 1.04 ± 0.053 | 1.06 ± 0.037 | 1.12 ± 0.055 | 1.16 ± 0.06 | 1.18 ± 0.037 | 1.07 ± 0.071 | 1.08 ± 0.014
6 | HCC1806 BREAST | 0.958 ± 0.19 | 0.944 ± 0.041 | 1.17 ± 0.078 | 1.08 ± 0.017 | 0.887 ± 0.026 | 1.01 ± 0.096 | 0.9673 ± 0.0067 | 0.908 ± 0.066 | 0.98 ± 0.029 | 1.2 ± 0.089 | 1.11 ± 0.078 | 1.07 ± 0.061 | 1.14 ± 0.13 | 1.1 ± 0.036 | 1.04 ± 0.073 | 1.06 ± 0.091
7 | MDAMB361 BREAST | 0.708 ± 0.053 | 0.758 ± 0.065 | 0.76 ± 0.12 | 0.776 ± 0.026 | 0.577 ± 0.099 | 0.561 ± 0.073 | 0.626 ± 0.099 | 0.591 ± 0.066 | 0.879 ± 0.03 | 0.906 ± 0.036 | 0.955 ± 0.045 | 0.901 ± 0.034 | 1 ± 0.02 | 0.917 ± 0.099 | 0.923 ± 0.024 | 0.874 ± 0.054
8 | HCT15 LARGE INTESTINE | 1.03 ± 0.12 | 1.07 ± 0.024 | 1.05 ± 0.053 | 1.02 ± 0.081 | 1.05 ± 0.054 | 1.05 ± 0.061 | 1.02 ± 0.079 | 1.05 ± 0.069 | 1.03 ± 0.058 | 1.07 ± 0.031 | 1.04 ± 0.034 | 1.07 ± 0.059 | 0.932 ± 0.054 | 1.03 ± 0.03 | 0.961 ± 0.064 | 0.973 ± 0.04
9 | SCC003 HEADNECK | 1.06 ± 0.027 | 1.01 ± 0.12 | 1.1 ± 0.026 | 1.04 ± 0.061 | 1.08 ± 0.13 | 0.949 ± 0.081 | 0.998 ± 0.14 | 1.04 ± 0.099 | 1.04 ± 0.11 | 1.07 ± 0.096 | 1.1 ± 0.052 | 1.08 ± 0.11 | 1.02 ± 0.025 | 1.07 ± 0.076 | 1.01 ± 0.12 | 1.05 ± 0.13
10 | MHM BONE | 1.04 ± 0.022 | 1.04 ± 0.05 | 1.07 ± 0.032 | 1.04 ± 0.046 | 1.11 ± 0.016 | 1.089 ± 0.01 | 1.078 ± 0.0072 | 1.05 ± 0.032 | 0.999 ± 0.011 | 1.02 ± 0.033 | 1.024 ± 0.009 | 1.03 ± 0.033 | 0.96 ± 0.081 | 1.04 ± 0.012 | 0.963 ± 0.005 | 0.949 ± 0.029
11 | SG43 HEADNECK | 1.21 ± 0.12 | 0.963 ± 0.1 | 0.92 ± 0.087 | 0.761 ± 0.09 | 0.961 ± 0.15 | 1.14 ± 0.21 | 1.31 ± 0.11 | 1.15 ± 0.088 | 1.07 ± 0.11 | 1.03 ± 0.07 | 0.909 ± 0.17 | 0.806 ± 0.26 | 0.744 ± 0.04 | 0.878 ± 0.17 | 0.9 ± 0.068 | 0.761 ± 0.081
12 | MDAMB134 BREAST | 0.907 ± 0.16 | 0.994 ± 0.19 | 0.752 ± 0.12 | 0.9 ± 0.011 | 0.913 ± 0.26 | 0.663 ± 0.12 | 0.724 ± 0.1 | 0.74 ± 0.0085 | 1.05 ± 0.052 | 0.999 ± 0.041 | 1.06 ± 0.17 | 0.93 ± 0.03 | 1.13 ± 0.1 | 1.06 ± 0.22 | 1.15 ± 0.052 | 1.03 ± 0.051
13 | SG27 HEADNECK | 1.1 ± 0.093 | 1.11 ± 0.04 | 0.984 ± 0.051 | 0.984 ± 0.1 | 1.13 ± 0.13 | 1.1 ± 0.041 | 1.15 ± 0.058 | 1.26 ± 0.1 | 1.1 ± 0.076 | 0.993 ± 0.089 | 1 ± 0.058 | 1.02 ± 0.052 | 1.08 ± 0.049 | 0.966 ± 0.081 | 0.825 ± 0.062 | 0.802 ± 0.11
14 | OS25HAL BONE | 1.02 ± 0.057 | 1.006 ± 0.0082 | 1.03 ± 0.039 | 1.03 ± 0.014 | 1.09 ± 0.018 | 1.04 ± 0.042 | 1.09 ± 0.025 | 1.03 ± 0.038 | 1.01 ± 0.026 | 1.04 ± 0.015 | 1.03 ± 0.014 | 0.965 ± 0.034 | 1.01 ± 0.013 | 1.03 ± 0.029 | 0.872 ± 0.06 | 0.893 ± 0.075
15 | NY BONE | 0.99 ± 0.041 | 0.971 ± 0.023 | 1.08 ± 0.002 | 1.03 ± 0.048 | 1.11 ± 0.022 | 1.09 ± 0.043 | 1.07 ± 0.051 | 1.106 ± 0.0067 | 0.927 ± 0.024 | 0.98 ± 0.037 | 0.997 ± 0.018 | 1.06 ± 0.036 | 1.03 ± 0.053 | 1.02 ± 0.041 | 0.936 ± 0.032 | 0.924 ± 0.029
16 | KPD BONE | 0.967 ± 0.054 | 0.974 ± 0.034 | 1.08 ± 0.062 | 1.04 ± 0.032 | 1.01 ± 0.031 | 1.08 ± 0.019 | 1.04 ± 0.043 | 1.07 ± 0.059 | 0.937 ± 0.07 | 0.981 ± 0.061 | 0.999 ± 0.048 | 0.995 ± 0.043 | 0.992 ± 0.058 | 0.926 ± 0.035 | 0.883 ± 0.035 | 0.828 ± 0.061
17 | SNU475 LIVER | 0.996 ± 0.06 | 1.04 ± 0.055 | 1.01 ± 0.042 | 1.03 ± 0.034 | 0.9037 ± 0.0085 | 0.873 ± 0.029 | 0.932 ± 0.04 | 0.908 ± 0.046 | 0.936 ± 0.035 | 0.976 ± 0.033 | 0.891 ± 0.18 | 1.02 ± 0.018 | 0.952 ± 0.011 | 0.965 ± 0.033 | 0.713 ± 0.068 | 0.59 ± 0.027
18 | JURKAT HAEMATOPOIETIC AND LYMPHOID TISSUE | 1.08 ± 0.047 | 1.13 ± 0.017 | 1.09 ± 0.042 | 1.08 ± 0.041 | 1.06 ± 0.012 | 1.03 ± 0.022 | 1.06 ± 0.044 | 1.05 ± 0.032 | 1.03 ± 0.011 | 1.051 ± 0.0042 | 1.04 ± 0.013 | 1.03 ± 0.03 | 0.9907 ± 0.0059 | 1 ± 0.018 | 0.987 ± 0.02 | 0.981 ± 0.029
19 | MDAMB468 BREAST | 0.911 ± 0.041 | 0.9443 ± 0.0091 | 1.02 ± 0.061 | 0.932 ± 0.019 | 0.964 ± 0.09 | 0.964 ± 0.077 | 0.947 ± 0.076 | 0.868 ± 0.053 | 1.08 ± 0.041 | 1.04 ± 0.061 | 1.04 ± 0.039 | 1.08 ± 0.038 | 1.09 ± 0.014 | 1.05 ± 0.033 | 0.988 ± 0.072 | 0.964 ± 0.043
20 | HSSYII SYNOVIAL | 0.909 ± 0.02 | 0.985 ± 0.084 | 0.984 ± 0.022 | 0.98 ± 0.02 | 0.87 ± 0.069 | 0.83 ± 0.065 | 0.833 ± 0.015 | 0.839 ± 0.039 | 0.942 ± 0.026 | 0.901 ± 0.035 | 0.994 ± 0.043 | 0.976 ± 0.011 | 0.961 ± 0.013 | 0.938 ± 0.031 | 0.667 ± 0.034 | 0.617 ± 0.038
21 | NCIH441 LUNG | 1.03 ± 0.069 | 1.03 ± 0.043 | 1.16 ± 0.034 | 0.969 ± 0.072 | 1.02 ± 0.068 | 1 ± 0.022 | 1.07 ± 0.037 | 0.957 ± 0.083 | 0.962 ± 0.096 | 1.07 ± 0.052 | 1.02 ± 0.064 | 1.07 ± 0.065 | 1.02 ± 0.077 | 1.06 ± 0.054 | 1.01 ± 0.045 | 0.918 ± 0.052
